The assay concerns PBMC. In words: Inhibition of LPS-stimulated TNF-alpha release in human PBMC at 600 ng/ml after 20 hrs by ELISPOT test. The class given is functional, cell-based.

Molecules are shown by their SMILES. Active and inactive are the calls of the source. The calls are words filed in the database; no cut-off is given here.

On to `C[C@@H]1C[C@H]2[C@@H]3CCC4=CC(=O)C=C[C@]4(C)[C@@]3(F)[C@@H](O)C[C@]2(C)[C@@]1(O)C(=O)CO`, for which the inhibition result is “Active”.

For the origin of these results see ChEMBL document CHEMBL3877318, “Cystatin C peptidomimetic derivative with antimicrobial properties as a potential compound against wound infections” (Bioorg Med Chem, 2017).
